Patent publication US20260337225A1, “SMALL PEPTIDE AND USE THEREOF IN MUCOSAL REPAIR” (FORREST BIO-PHARM (SHENZHEN) CO., LTD., priority 2022, published 2026)

Tested on: rat model of chronic gastric ulcer
Experiment: Rat model of chronic gastric ulcer (anhydrous ethanol followed by aspirin)
Assay type: in vivo
Details: omeprazole 2.6 mg/kg twice daily for 3 days
Procedure: The function of the small peptides obtained in Embodiment 2 was validated in the present embodiment by using a rat model of chronic gastric ulcer.
Control group (model group): A rat model of chronic gastric ulcer model was constructed by intragastric administration of anhydrous ethanol (1 mL/200 g), followed by intragastric administration of 200 mg/kg aspirin 2 h later. The rats were administered with aspirin once daily for 4 days. At day 5, the rats were administered with an equal volume of saline.
Blank group: The rats were administered with an equal volume of saline.
Drug treatment groups: A rat model of chronic gastric ulcer was constructed as above-mentioned. At day 5, the rats were respectively administered with the rice polypeptide mixture (50 mg/kg), small peptide P1 (0.5 mg/kg), or small peptide P2 (0.5 mg/kg) twice daily for 3 days. On day 4, the rats were sacrificed and their gastric necropsy was performed.
Positive control group (omeprazole 2.6 mg/kg): A rat model of chronic gastric ulcer was constructed as above. At day 5, the rats were administered with omeprazole (2.6 mg/kg) twice daily for 3 days. On day 4, The rats were sacrificed and their gastric necropsy was performed.
Each group consisted of 10 rats. After 24 h of modeling, the rats were sacrificed to extract the gastric tissue, for measuring gastric pH, and observing changes in ulcer area via gastric tissue dissection. Liver and kidney tissues were collected for pathological section observation to assess drug safety.

In the case of `COc1ccc2[nH]c([S+]([O-])Cc3ncc(C)c(OC)c3C)nc2c1` (centres unmarked) [omeprazole, reference compound], the Ulcer index (10 rats, ratio of ulcer area to gastric mucosal tissue area, Control group 40.5 ± 5.3) is reported as 7.2 ± 4.1% and the Ulcer inhibition rate (percentage reduction in ulcer area compared to the Control group) is reported as 82.2%.
